Measured values taken from patent US10975434B2, “Growth differentiation factor 15 as biomarker for metformin” (Sanofi-Aventis Deutschland GmbH, priority 2015, dated 2021).

Tests used:
[1] = system: GDF15; test: Multiplex serum biomarker analysis: GDF15 level versus metformin use and dose; format: in vivo, human; details: serum of people taking varying doses of metformin; FIG. 2
Procedure: At Myriad RBM Inc., the samples were thawed at room temperature (RT), vortexed, spun at 13,000 g for 5 minutes for clarification, and an aliquot was removed into a master microtiter plate for analysis. Using automated pipetting, an aliquot of each sample was introduced into one of the capture microsphere multiplexes of the Human DiscoveryMAP. The mixtures of sample and capture microspheres were thoroughly mixed and incubated at RT for 1 hour. Multiplexed cocktails of biotinylated reporter antibodies for each multiplex (such as GDF-15), were then added robotically, and after thorough mixing, were incubated for an additional hour at RT. Multiplexes were developed using an excess of streptavidinphycoerythrin solution which was thoroughly mixed into each multiplex and incubated for 1 hour at RT. […] Testing results were determined first for the high, medium and low controls for each multiplex to ensure proper assay performance. Unknown values for each of the analytes localized in a specific multiplex were determined using 4 and 5 parameter, weighted and non-weighted curve fitting algorithms included in the data analysis package^40. […]
The 237 available biomarkers were analyzed to identify those that were statistically independent determinants of the use of metformin using unadjusted logistic regression models and forward selection. […]

[2] = system: GDF15 mRNA; test: GDF15 messenger RNA expression in primary hepatocytes (BeadChip); format: cell-based, mouse; details: primary C57Bl6 hepatocytes, metformin 0.5 mM versus vehicle; P=0.003
Procedure: To further understand the link between metformin and GDF15 levels, in vitro experiments were conducted using mouse hepatocytes. Primary hepatocytes from 4 different C57Bl6 wild-type male mice were isolated by collagenase digestion as previously described^14. Briefly, cells were plated on 12-well collagen-coated plates overnight in William's Media E containing 10% fetal bovine serum (FBS) and 1% antibiotic-antimycotic. […] Media was then snap frozen and stored at −80° C. for later analyses, and cells were harvested in cell lysis buffer for assessment of total protein or RNA.
GDF15 release into the media was measured using a commercially available ELISA kit (R&D Systems, Minneapolis, Minn.) and expressed per mg of hepatocyte protein. Total RNA was isolated using the Trizol plus RNA Purification kit (Ambion), concentrated with Speedvac (Thermo), and then quantified using Quant-IT RiboGreen (LifeTech). Total RNA was then reverse transcribed and amplified using the Illumina TotalPrep RNA Amplification Kit (LifeTech) according to the manufacturer's protocol. Samples were hybridized to the Illumina Mouse Ref-8 v2.0 complementary DNA BeadChip and scanned on the iScan System (Illumina). The raw sample probe profile and control probe profile were exported from GenomeStudio version 1.9.0 (Illumina). […]

[3] = system: GDF15; test: Acute metformin injection, serum GDF15 in C57bl6 mice; format: in vivo, mouse; details: 250 mg/kg intraperitoneally, male C57bl6 mice, versus saline; P<0.05
Procedure: (§1) For the acute experiments, 12 (i.e. 6 per group) 20-week old male C57bl6 mice (Jackson Laboratories) were fasted for 12 hours then allowed to feed ad libitum for 2 hours prior to injection with either metformin (250 mg/kg in 10 μl/g body weight saline) or vehicle (10 μl/g body weight saline) intraperitoneally. Blood was collected 90 minutes later by tail vein bleed, and serum was assayed for GDF15 levels using the Elisa described above (R&D Systems, Minneapolis, Minn.). […] Fed bloods were sampled by tail vein bleed from the animals at the end of the treatment period and serum GDF15 measured as above. Animal experiments were all approved by the McMaster University Animal Ethics Committee.

[4] = system: GDF15; test: Chronic metformin in high-fat diet, serum GDF15 in obese C57bl6 mice; format: in vivo, mouse; details: obese insulin-resistant mice, 2.5 g/kg metformin in 60% high-fat diet for 6 weeks, versus untreated controls; P<0.05
Procedure: as §1

[5] = Outcomes during follow-up of biomarker study participants by baseline metformin use
[6] = share of the 2317 participants on metformin at baseline

CN(C)C(=N)NC(=N)N [Metformin, metformin]
mean concentration of GDF15 by metformin dose [1]: rose with progressively higher doses
increase in GDF15 mRNA [2]: 1.6 fold
90 minute serum levels of GDF 15 [3]: significantly increased
serum GDF 15 levels after chronic treatment [4]: significantly increased
Expanded Composite CV Outcome during follow-up, number of participants ([5]; participants on metformin at baseline, N 2317, P 0.008 vs no metformin): 622
Death during follow-up, number of participants ([5]; participants on metformin at baseline, N 2317, P 0.01 vs no metformin): 331
Composite CV Outcome during follow-up, number of participants ([5]; participants on metformin at baseline, N 2317, median follow-up 6.2 years, P 0.007 vs no metformin): 346
Composite CV Outcome during follow-up, value in parentheses [5, 6]: (14.9)
Death during follow-up, value in parentheses [5, 6]: (14.3)
Expanded Composite CV Outcome during follow-up, value in parentheses [5, 6]: (26.8)
